Consider 15 compounds from patent publication US5668157A, “Cyanoguanidines as K-channel blockers” (Pharmacia & Upjohn Company, priority 1996, dated 1997).

Experiment [1] deals with K^+ channel, rabbit mesenteric artery (RMA) rings. The settings on record: pinacidil 1 μM, norepinephrine-contracted RMA rings; cited from earlier work.
Experiment [2] has the same test system. As to the kind of experiment: Inhibition of pinacidil-induced relaxation of norepinephrine-contracted isolated rabbit mesenteric artery (RMA) rings (K^+ channel antagonism). Type of experiment: cell-based. The settings on record: Oryctolagus cuniculus, 0.25 h, pinacidil 1 μM, norepinephrine 5 μM, read-out: RMA K^+ Antagonism % I (percent inhibition of pinacidil relaxation at 15 minutes); for inhibition at 0.3 µM: conc. 0.3 μM; for inhibition at 10 µM: conc. 10 μM; for inhibition at 0.1 µM: conc. 0.1 μM. On the procedure:
The results for potassium channel blocking were obtained by using isolated rabbit mesenteric artery (RMA) procedures. Norepinephrine (5 μM) was used to contract the RMA rings twice, with an hour separating the two contractions. During this hour the tissues equilibrated in physiological salt solution at a resting tension of 1 gram. Upon the plateau of the second contraction 1 μM pinacidil was added to all tissues and the resulting relaxation time course was studied for thirty minutes. […] By studying the ability of the test compounds to inhibit this pinacidil-induced relaxation, the degree of potassium antagonism could be determined. The compounds were applied to the tissues for one hour between the two contractions and the pinacidil-induced relaxation was studied in the continuing presence of the compounds. Thus, the total time of pretreatment with the test compound was 75 minutes before the addition of pinacidil.
(§1) Data for K^+ channel antagonist activity on rabbit mesenteric artery (RMA) and natriuretic efficacy after […] (IP) administration to rats are collected in Table II.
^a Lowest inhibitor concentration (μM) that gave greater than 20%
inhibition or lowest concentration tested.
^b This is a measure of a compound's ability to inhibit the relaxatio
of norepinephrine (5 μM) contracted rabbit mesenteric artery rings by
pinacidil (1 μM). It is expressed as percent inhibition. Compounds wit
65% or greater inhibition at 5 μM are considered to be active, with
20-65% inhibition moderately active and with less than 20% inhibition

Experiment [3] in a line: Diuretic screen: urinary Na^+ excretion after IP administration to rats. Type of experiment: in vivo, rat (female Harlan Sprague-Dawley). The settings on record: rat, IP, 5, 15 and 30 mg/kg, 5 hour test period. On the procedure:
as §1
The diuretic activity was determined in female Harlan Sprague-Dawley rats weighing 200 to 230 grams that were fasted 15 hours overnight, and then were deprived of both food and water for an additional hour prior to dosing. […] It approximates the area under the dose response curve. The vehicle was 20% dimethylacetamide (DMA; v/v) in a pH 7.4 phosphate buffer (0.58% Na2 HPO4 and 0.13% NaH2 PO4.H2 O). Sufficient drug was suspended in 1 to 2 ml of this vehicle to deliver doses of 5, 15 and 30 mg/kg in a volume of 0.5 ml (2-4 rats/dose). At least 2 vehicle control rats, and, for most tests, 2 standard diuretic treated rats were included in each experiment. Standards used as comparators included the K^+ retaining diuretic amiloride and the K^+ wasting diuretics furosemide, hydrochlorothiazide and metolazone.
Following their IP doses, the rats' urinary bladders were gently compressed to eliminate all pretreatment urine, and two identically treated rats were placed in a stainless steel metabolism cage equipped with a graduated test tube to collect voided urine. At 2 and 5 hours post treatment, the rats' bladders were again compressed, the volume of urine excreted by the pair of rats was recorded, and aliquots of urine were retained for analysis of Na^+ and K^+ concentrations with a NOVA-13 selective ion analyzer. Following the 5 hour urine collection, the rats were returned to their stock cages, and at least 1 week of recovery was allowed between a maximum of 3 diuretic tests.
The electrolyte concentrations detected in these urine samples were manually multiplied by their respective volumes to determine total milliequivalent (mEq) excretion of Na^+ and K^+ per pair of rats, and the results obtained with multiple racks per drug treatment were averaged. Increases in urinary Na^+ excretion of 50% or more above the pooled control tests were regarded as reflecting activity.
^c This represents the net increase (above control) in urinary
Na^+ excretion (μEq) for the 5 hour test period divided by the
total of the three drug doses (mg/kg) administered IP in the stage II
diuretic screen in rats. It approximates the area under the dose response

SMILES strings stand for the structures.

One may read the inhibition as the percentage by which the read-out fell short of the control.

Consider `CC(N/C(=N\C#N)Nc1ccncc1)C(C)(C)C` (centres unmarked) [pinacidil], for which the “K^+ channel dependent vasodilation by pinacidil” value in experiment [1] is “maximal K^+ channel dependent vasodilation”.

Turning to `Cc1nc(N)ccc1NC(=NC#N)NC1(c2ccccc2)CCC1` [Compound 2, N-(6-Amino-2-methyl-3-pyridyl)-N"-cyano-N'-(1-phenylcyclobutyl)guanidine, methanol solvate], the inhibition at 0.3 µM in experiment [2] was 96%. Further, the “5 h Net Natriuretic Efficacy (net increase above control in urinary Na^+ excretion divided by total of three doses)” value in experiment [3] amounted to 77 μEq Na^+ /mg/kg.

Consider `CC(=O)Nc1cncc(NC(=NC#N)NC2(c3ccccc3)CCC2)c1` [Compound 13, N-(5-Acetylamino-3-pyridyl)-N"-cyano-N'-(1-phenylcyclobutyl)guanidine], for which the inhibition at 10 µM in experiment [2] was found to be 6.4%. Also, the “5 h Net Natriuretic Efficacy (net increase above control in urinary Na^+ excretion divided by total of three doses)” value in experiment [3] turned out to be 15 μEq Na^+ /mg/kg.

For `N#CN=C(Nc1cnc(Cl)c(N)c1)NC1(c2ccccc2)CCC1` [Compound 1, N-(5-Amino-6-chloro-3-pyridyl)-N"-cyano-N'-(1-phenylcyclobutyl)guanidine], the inhibition at 0.1 µM in experiment [2] was 90%. In addition, the “5 h Net Natriuretic Efficacy (net increase above control in urinary Na^+ excretion divided by total of three doses)” value in experiment [3] was found to be 39 μEq Na^+ /mg/kg.

Take `CC[C@@H](NC(=NC#N)Nc1ccc(NCCF)nc1)c1ccccc1` [Compound 10, (R)-N-[6-(2-Fluoroethylamino)-3-pyridyl]-N"-cyano-N'-(1-phenylpropyl)guanidine]: in experiment [2], the inhibition at 10 µM is 72.3%. In addition, the “5 h Net Natriuretic Efficacy (net increase above control in urinary Na^+ excretion divided by total of three doses)” value in experiment [3] was found to be 34 μEq Na^+ /mg/kg.

Regarding `CC[C@@H](NC(=NC#N)Nc1ccc(C)nc1)c1ccccc1` [Compound 8, (R)-N-(6-Methyl-3-pyridyl)-N"-cyano-N'-(1-phenylpropyl)guanidine], the inhibition at 10 µM in experiment [2] was found to be 84.1%. In addition, the “5 h Net Natriuretic Efficacy (net increase above control in urinary Na^+ excretion divided by total of three doses)” value in experiment [3] worked out at 25 μEq Na^+ /mg/kg.

In the case of `CC[C@@H](NC(=NC#N)Nc1cccnc1C)c1ccccc1` [Compound 11, (R)-N-(2-Methyl-3-pyridyl)-N"-cyano-N'-(1-phenylpropyl)guanidine], the inhibition at 10 µM in experiment [2] is 91.6%. Besides, the “5 h Net Natriuretic Efficacy (net increase above control in urinary Na^+ excretion divided by total of three doses)” value in experiment [3] is 25 μEq Na^+ /mg/kg.

On to `CC[C@@H](NC(=NC#N)Nc1cncc(Br)c1)c1ccccc1` [Compound 9, (R)-N-(5-Bromo-3-pyridyl)-N"-cyano-N'-(1-phenylpropyl)guanidine], for which, in experiment [2], the inhibition at 10 µM was 94.6%. In addition, the “5 h Net Natriuretic Efficacy (net increase above control in urinary Na^+ excretion divided by total of three doses)” value in experiment [3] is 12 μEq Na^+ /mg/kg.

In the case of `C[C@@H](NC(=NC#N)Nc1cccnc1N(C)C)c1ccccc1` [Compound 5, (R)-N-[2-(Dimethylamino)-3-pyridyl]-N"-cyano-N'-(1-phenylethyl)guanidine], the inhibition at 5 µM in experiment [2] (conc. 5 μM) was 17.4%. In experiment [3], the “5 h Net Natriuretic Efficacy (net increase above control in urinary Na^+ excretion divided by total of three doses)” value turned out to be 15 μEq Na^+ /mg/kg.

Take `N#CN=C(Nc1ccc(NCCF)nc1)NC1(c2ccccc2)CCC1` [Compound 7, N-[6(2-Fluoroethylamino)-3-pyridyl]-N"-cyano-N'-(1-phenylcyclobutyl)guanidine]: the inhibition at 1 µM in experiment [2] (conc. 1.0 μM) is 24.3%. Also, the “5 h Net Natriuretic Efficacy (net increase above control in urinary Na^+ excretion divided by total of three doses)” value in experiment [3] stood at 60 μEq Na^+ /mg/kg.

For the compound `N#CN=C(Nc1cncc(N)c1)NC1(c2ccccc2)CCC1` [Compound 3, N-(5-Amino-3-pyridyl)-N"-cyano-N'-(1-phenylcyclobutyl)guanidine], the inhibition at 0.3 µM in experiment [2] came out at 93%. The “5 h Net Natriuretic Efficacy (net increase above control in urinary Na^+ excretion divided by total of three doses)” value in experiment [3] turned out to be 50 μEq Na^+ /mg/kg.

For `CC[C@@H](NC(=NC#N)Nc1ccc(NS(C)(=O)=O)nc1)c1ccccc1` [Compound 14, (R)-N-(6-Methanesulfonylamino-3-pyridyl)-N"-cyano-N'-(1-phenylpropyl)guanidine], in experiment [2] (conc. 30 μM), the inhibition at 30 µM was found to be 2.3%. Besides, in experiment [3], the “5 h Net Natriuretic Efficacy (net increase above control in urinary Na^+ excretion divided by total of three doses)” value was 21 μEq Na^+ /mg/kg.

In the case of `CN(C)c1ncccc1NC(=NC#N)NC1(c2ccccc2)CCC1` [Compound 4, N-[2-(Dimethylamino)-3-pyridyl]-N"-cyano-N'-(1-phenylcyclobutyl)guanidine], the inhibition at 2 µM in experiment [2] (conc. 2.0 μM) came out at 87%. Also, in experiment [3], the “5 h Net Natriuretic Efficacy (net increase above control in urinary Na^+ excretion divided by total of three doses)” value is 10 μEq Na^+ /mg/kg.

Regarding `CC[C@@H](NC(=NC#N)Nc1cncc(N)c1)c1ccccc1` [Compound 12, (R)-N-(5-Amino-3-pyridyl)-N"-cyano-N'-(1-phenylpropyl)guanidine], in experiment [2], the inhibition at 10 µM is 85.8%. In experiment [3], the “5 h Net Natriuretic Efficacy (net increase above control in urinary Na^+ excretion divided by total of three doses)” value is recorded as 26 μEq Na^+ /mg/kg.

`CC[C@@H](N=C(NC#N)Nc1cccnc1Cl)c1ccccc1` [Compound 6, (R)-N-(2-chloro-3-pyridyl)-N'-cyano-N"-(1-phenylpropyl)guanidine]: the inhibition at 0.1 µM in experiment [2] stood at 77.5%. In addition, the “5 h Net Natriuretic Efficacy (net increase above control in urinary Na^+ excretion divided by total of three doses)” value in experiment [3] is 48 μEq Na^+ /mg/kg.
